# Measurements from patent US20250367209A1 (SOUTHERN RESEARCH INSTITUTE, priority 2022, published 2025).
# Entries after “also recorded” stand apart in the source; their conditions may differ.
# Key:
# [1] = test system: endogenous Tau-Fyn interaction; experiment: Endogenous Tau-Fyn PLA in primary neurons; assay type: cell-based, rat; conditions: 3 μM and 15 μM, 24 hours
# Protocol: Endogenous Tau-Fyn PL, in primary neurons: All PLA protocols were adapted from our recent study (Rush, et al. (2020) Neurobiol Dis 134, 104668).
# For the endogenous Tau-Fyn PLA, neurons were grown on coverslips as described above to DIV20, then treated with compound no. 69 or vehicle, and fixed with PFA 24 hours later. Dako Tau (1:1000) and Fyn15 (1:250) antibodies were used. Duolink In Situ Fluorescence kit was used for PLA. Briefly, coverslips with fixed cells were permeabilized for 10 minutes in 0.25% Triton X-100, then blocked in 5% NGS in PBS for one hour at room temperature. Coverslips were incubated overnight at 4° C. with primary antibody in 1% NGS, then washed 3×5 minutes in PBS. Coverslips were then incubated for 1 hour at 37° C. in PLA probes (Anti-Mouse minus, Anti-Rabbit plus). […] To quantify PLA puncta, PLA fluorescence was thresholded, then ImageJ particle analyzer was run, specifying size and circularity to exclude any non-punctate signal. Quantified values were then normalized to values for vehicle-treated slides from that experiment. […]
# 97 kinases = experiment: Eurofins DiscoverX ScanEDGE kinase panel; assay type: biochemical; conditions: compound no. 69 at 3 μM; saracatinib stock 30 μM = 1000× testing concentration; activity = <35% of control
# Excerpt: 69 and compound no. […] Since Fyn was not included in that panel, a custom panel was completed for Fyn kinase activity.
# FynSH3 = FynSH3 (Homo sapiens (Human), UniProt P06241); experiment: Isothermal titration calorimetry, FynSH3; assay type: binding
# Sequence of FynSH3 (P06241 82-143): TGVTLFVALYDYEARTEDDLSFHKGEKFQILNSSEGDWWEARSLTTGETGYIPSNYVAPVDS
# Excerpt: Human Fyn-SH3 domain with GST-tag at the N-terminus and a Strep-tag II ([…]) at the C-terminus (GST-Fyn-SH3-Strep) was cloned into pPR-IBA1 vector (IBA Lifesciences) (Cochran, et al. (2014) J. Biomol. Screen. 19, 1338-1349). Codon-optimized human 4R2N Tau for E. coli expression with a Strep-tag II at the C-terminus (His-Tau-Strep) was cloned into pET-28a(+) vector (Novagen). The constructs were transformed into E. coli BL-21(DE3) competent cells (Novagen). For GST-Fyn-SH3-Strep purification, a single colony was inoculated in Luria-Bertani (LB) broth at 37° C. overnight. 10 mL cell culture was added into 500 mL LB medium and cultured at 37° C. 0.5 mM Isopropyl β-D-1-thiogalactopyranoside (IPTG) was added into the culture when OD600 reached 0.7. Cells were further cultured at 25° C. for 4 hours and harvested. Cell pellet was resuspended in lysis buffer (20 mM Tris pH 7.9, 300 mM NaCl, 1 mM TCEP) with 1 tablet of EDTA-free protease inhibitors (ThermoFisher) and 1 mg/ml lysozyme. Cells were disrupted by sonication and debris was removed by centrifugation at 9500 rpm for 1 hour. […]
# Purified full-length Tau and FynSH3 were dialyzed into 20 mM Tris and 150 mM NaCl, pH 8.0 with Slide-A-Lyzer G2 Dialysis Cassettes with 10K MWCO (ThermoFisher #87729). […] Protein concentrations were measured on a Nanodrop2000 (ThermoFisher) based on absorbance at 280 nm. […]
# [2] = test system: endogenous Tau-tubulin interaction; experiment: Tau-Tubulin PLA in HEK-293 cells; assay type: cell-based, human; conditions: 15 μM, 24 hours, untransfected HEK-293 cells
# Protocol: Tau-Tubulin PLA: Untransfected HEK-293 cells were used to measure endogenous Tau-tubulin interaction. Cells were grown for 48 hours before applying 15 µM compound no. 69 for 24 hours. Cells were fixed and PLA was run as above except with Dako Tau (1:1000) and α-tubulin (1:2000) primary antibodies.
smiles,measurement,setting,value
O=C(CN1CCOc2ccccc21)Nc1nnc(-c2ccccn2)[nH]1 [compound no. 69],"endogenous Tau-Fyn interaction, PLA in primary neurons",[1],inhibited endogenous Tau-Fyn interaction at both 3 μM and 15 μM; also recorded: reduces endogenous Tau-Fyn PLA
same,"kinase inhibition, panel of 97 kinases",97 kinases,did not inhibit Fyn or any of the 97 kinases; also recorded: is not a kinase inhibitor
same,"binding to FynSH3, ITC",FynSH3,did not bind FynSH3
same,"Tau-tubulin interaction, PLA",[2],did not inhibit Tau-tubulin binding; also recorded: does not inhibit Tau-tubulin interaction
